The source made the active and inactive calls. Cut-off read from the data, not from the text of the source, for most assays here: actives have a measured AC50 and inactives only a lower limit.
Key:
[1] = A Cell-Based Confirmatory Screen for Compounds that Inhibit VEEV, TC-83 (5).; assay type: functional
[2] = A Cell-Based Confirmatory Screen for Compounds that Inhibit VEEV TC-83 (4).; assay type: functional
[3] = HIF luciferase reporter inhibitors, dose response, ARNT-TACC3 inhibitor project, cell-based, dry powder samples, luminescence, 2158-07 (AID 720561); assay type: functional
[4] = A375 melanoma cell viability loss, dose response, counter-screen for MITF inhibitor project, CellTiter-Glo luminescence, dry powder, set 4 (AID 624364); assay type: functional, cell-based; settings: A-375;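 note: A375 melanoma cells are MITF independent so this is a counter screen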
[5] = A375 melanoma cell cytotoxicity, dose response, counter-screen for MITF inhibitor project, CellTiter-Glo luminescence, dry powder, set 2 (AID 624489); assay type: functional, cell-based; settings: A-375;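 note: actives are compounds lowering A375 viability meaning general cytotoxicity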
[6] = biological target: Protein disulfide-isomerase (Homo sapiens, UniProt P07237); experiment: PDI inhibitors, insulin turbidity readout, confirmation, biochemical, dry powder samples, set 2 (AID 652146)
Chain of Protein disulfide-isomerase (P07237 whole entry): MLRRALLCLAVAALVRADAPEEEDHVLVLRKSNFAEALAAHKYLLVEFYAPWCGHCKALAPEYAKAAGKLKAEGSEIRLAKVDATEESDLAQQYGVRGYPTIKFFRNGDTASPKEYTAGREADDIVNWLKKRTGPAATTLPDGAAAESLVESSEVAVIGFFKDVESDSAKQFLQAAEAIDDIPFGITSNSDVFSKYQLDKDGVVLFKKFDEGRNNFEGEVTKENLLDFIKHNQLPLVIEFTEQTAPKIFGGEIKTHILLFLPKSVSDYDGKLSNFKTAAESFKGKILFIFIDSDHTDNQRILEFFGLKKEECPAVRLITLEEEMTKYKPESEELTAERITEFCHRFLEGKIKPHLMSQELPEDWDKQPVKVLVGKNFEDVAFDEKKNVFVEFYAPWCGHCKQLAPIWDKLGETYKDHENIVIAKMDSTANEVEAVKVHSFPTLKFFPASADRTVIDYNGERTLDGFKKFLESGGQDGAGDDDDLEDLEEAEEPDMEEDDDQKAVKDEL

[7] = HepG2 cell cytotoxicity, dose response, cytotoxicity control, dry powder samples (AID 720568); assay type: functional, cell-based
Fatty acid synthase = Fatty acid synthase (Homo sapiens, UniProt P49327); experiment: FAS thioesterase domain inhibitors, SAR follow-up, biochemical, endpoint fluorescence intensity, powder samples (AID 652164); assay type: functional
Chain of Fatty acid synthase (P49327 whole entry, the tested form may be a part): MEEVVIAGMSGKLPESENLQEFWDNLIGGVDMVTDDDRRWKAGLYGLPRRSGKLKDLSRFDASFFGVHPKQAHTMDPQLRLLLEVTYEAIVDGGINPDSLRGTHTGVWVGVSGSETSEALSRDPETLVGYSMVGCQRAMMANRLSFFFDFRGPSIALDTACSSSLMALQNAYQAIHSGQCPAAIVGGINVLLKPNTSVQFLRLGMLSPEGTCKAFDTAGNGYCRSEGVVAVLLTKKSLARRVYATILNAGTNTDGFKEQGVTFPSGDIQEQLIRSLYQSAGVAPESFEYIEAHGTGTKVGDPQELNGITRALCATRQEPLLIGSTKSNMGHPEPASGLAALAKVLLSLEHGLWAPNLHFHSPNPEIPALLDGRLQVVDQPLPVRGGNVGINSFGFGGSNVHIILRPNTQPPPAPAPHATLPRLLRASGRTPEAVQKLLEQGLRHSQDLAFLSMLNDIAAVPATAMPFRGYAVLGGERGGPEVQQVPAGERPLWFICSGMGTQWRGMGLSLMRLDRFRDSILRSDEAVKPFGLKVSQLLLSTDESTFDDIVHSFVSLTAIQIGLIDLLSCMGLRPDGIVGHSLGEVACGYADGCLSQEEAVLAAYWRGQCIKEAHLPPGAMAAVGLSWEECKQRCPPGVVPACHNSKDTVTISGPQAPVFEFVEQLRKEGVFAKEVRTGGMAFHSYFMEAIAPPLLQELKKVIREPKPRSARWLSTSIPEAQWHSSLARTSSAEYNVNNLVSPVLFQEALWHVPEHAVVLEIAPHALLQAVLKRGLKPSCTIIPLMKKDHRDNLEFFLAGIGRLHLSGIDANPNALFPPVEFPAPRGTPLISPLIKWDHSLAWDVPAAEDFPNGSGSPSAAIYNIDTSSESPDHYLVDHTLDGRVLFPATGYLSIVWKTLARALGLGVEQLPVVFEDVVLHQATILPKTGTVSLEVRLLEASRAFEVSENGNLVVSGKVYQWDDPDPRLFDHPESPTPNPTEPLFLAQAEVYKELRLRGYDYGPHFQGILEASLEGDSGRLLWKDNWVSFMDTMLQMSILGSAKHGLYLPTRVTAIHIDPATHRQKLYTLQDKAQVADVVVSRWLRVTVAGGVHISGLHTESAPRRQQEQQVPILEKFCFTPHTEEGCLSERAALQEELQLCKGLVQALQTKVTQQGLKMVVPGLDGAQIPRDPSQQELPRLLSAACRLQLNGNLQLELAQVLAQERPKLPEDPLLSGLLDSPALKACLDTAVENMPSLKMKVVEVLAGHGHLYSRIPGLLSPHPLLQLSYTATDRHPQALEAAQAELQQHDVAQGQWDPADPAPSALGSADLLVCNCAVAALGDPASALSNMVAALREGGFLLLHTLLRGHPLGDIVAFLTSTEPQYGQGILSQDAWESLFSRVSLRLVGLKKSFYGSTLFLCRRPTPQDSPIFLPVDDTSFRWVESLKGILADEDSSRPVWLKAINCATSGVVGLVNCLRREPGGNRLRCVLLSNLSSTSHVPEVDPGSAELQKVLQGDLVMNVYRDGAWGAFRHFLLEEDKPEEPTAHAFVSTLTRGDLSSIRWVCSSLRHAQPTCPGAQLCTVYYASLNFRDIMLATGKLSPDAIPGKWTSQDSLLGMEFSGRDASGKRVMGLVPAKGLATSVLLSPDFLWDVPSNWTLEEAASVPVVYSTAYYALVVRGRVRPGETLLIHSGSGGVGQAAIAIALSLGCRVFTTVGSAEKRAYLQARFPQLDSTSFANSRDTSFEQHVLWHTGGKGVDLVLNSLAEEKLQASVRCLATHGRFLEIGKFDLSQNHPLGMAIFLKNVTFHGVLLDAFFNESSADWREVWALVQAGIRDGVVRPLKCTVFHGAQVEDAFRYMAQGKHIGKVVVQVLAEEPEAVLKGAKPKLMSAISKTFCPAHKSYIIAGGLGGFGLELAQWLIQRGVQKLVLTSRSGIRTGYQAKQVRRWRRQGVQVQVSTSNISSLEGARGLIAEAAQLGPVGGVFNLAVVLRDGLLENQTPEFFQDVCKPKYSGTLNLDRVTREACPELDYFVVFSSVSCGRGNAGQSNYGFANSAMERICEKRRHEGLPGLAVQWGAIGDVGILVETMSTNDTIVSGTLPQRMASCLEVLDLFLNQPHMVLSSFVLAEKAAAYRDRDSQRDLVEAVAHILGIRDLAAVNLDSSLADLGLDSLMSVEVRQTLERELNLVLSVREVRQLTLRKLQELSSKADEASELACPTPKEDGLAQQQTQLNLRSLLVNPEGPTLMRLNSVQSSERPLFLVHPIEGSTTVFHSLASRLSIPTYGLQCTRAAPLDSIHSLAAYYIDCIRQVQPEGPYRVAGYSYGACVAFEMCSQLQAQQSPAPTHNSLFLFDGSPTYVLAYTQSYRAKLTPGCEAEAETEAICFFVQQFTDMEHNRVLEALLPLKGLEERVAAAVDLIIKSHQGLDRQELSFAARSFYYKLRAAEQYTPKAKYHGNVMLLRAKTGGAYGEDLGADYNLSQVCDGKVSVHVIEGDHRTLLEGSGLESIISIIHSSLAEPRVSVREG

[8] = biological target: Heat shock protein HSP 90-alpha (Homo sapiens, UniProt P07900); assay type: functional, organism-based
[9] = PAX5 activity inhibitors, dose response, selectivity assay for PAX8 inhibitor project, cell-based, plate reader, dry powder samples (AID 743047); assay type: functional;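 note: HEK293 cells carrying a Pax5 driven CD19 promoter luciferase reporter; potency of inhibitors that lower reporter luminescence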
[10] = A2780 ovarian cancer cell cytotoxicity, dose response, cytotoxicity control, plate reader, dry powder samples (AID 743046); assay type: functional, cell-based
[11] = PAX2 cell-based inhibition, dose response, selectivity assay for PAX8 inhibitor project, plate reader, dry powder samples (AID 743048); assay type: functional;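 note: HEK293 cells carrying a WT1 promoter luciferase reporter driven by expressed Pax2; potency is for inhibition of Pax2 driven reporter signal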
[12] = cytotoxicity in COV362 ovarian cancer cells, dose response, cytotoxicity control for PAX8 inhibitor project, cell-based, plate reader, dry powder, SA12 (AID 743144); assay type: functional
[13] = Shn3 3'UTR reporter inhibitors, dose response, cell-based, Clone20 osteoblasts, firefly luciferase, cherry-picked (AID 624132); assay type: functional;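 note: firefly luciferase luminescence from reporter carrying the Shn3 3'UTR in osteoblasts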
[14] = cytotoxicity in OV-90 ovarian cancer cells, dose response, PAX8 inhibitor project, cell-based, plate reader, dry powder, SA8 (AID 743149); assay type: functional
[15] = IGROV1 ovarian cancer cell cytotoxicity, dose response, PAX8 inhibitor project, plate reader, dry powder samples (AID 743043); assay type: functional, cell-based; settings: IGROV-1
[16] = IOSE-T80 ovarian epithelial cell cytotoxicity, dose response, cytotoxicity control for PAX8 inhibitor project, plate reader, dry powder samples (AID 743045); assay type: functional, cell-based
[17] = cytotoxicity in OVCAR4 cells, dose response, cytotoxicity control for PAX8 inhibitor project, cell-based, plate reader, dry powder, SA11 (AID 743150); assay type: functional; settings: OVCAR-4
HEK293 = experiment: inhibitors of LMP1-driven NF-kB reporter, dose response, cell-based, HEK293, luciferase, cherry-pick (AID 588343); assay type: functional; settings: Homo sapiens
Paired box protein Pax-8 = Paired box protein Pax-8 (Homo sapiens, UniProt Q06710); experiment: inhibitors of PAX8-driven TPO luciferase reporter, dose response, RMG-I cells, cherry-pick (AID 687027); assay type: functional, cell-based;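 note: luciferase reporter driven by Pax8 target thyroperoxidase promoter measured by SteadyGlo luminescence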
Chain of Paired box protein Pax-8 (Q06710 whole entry): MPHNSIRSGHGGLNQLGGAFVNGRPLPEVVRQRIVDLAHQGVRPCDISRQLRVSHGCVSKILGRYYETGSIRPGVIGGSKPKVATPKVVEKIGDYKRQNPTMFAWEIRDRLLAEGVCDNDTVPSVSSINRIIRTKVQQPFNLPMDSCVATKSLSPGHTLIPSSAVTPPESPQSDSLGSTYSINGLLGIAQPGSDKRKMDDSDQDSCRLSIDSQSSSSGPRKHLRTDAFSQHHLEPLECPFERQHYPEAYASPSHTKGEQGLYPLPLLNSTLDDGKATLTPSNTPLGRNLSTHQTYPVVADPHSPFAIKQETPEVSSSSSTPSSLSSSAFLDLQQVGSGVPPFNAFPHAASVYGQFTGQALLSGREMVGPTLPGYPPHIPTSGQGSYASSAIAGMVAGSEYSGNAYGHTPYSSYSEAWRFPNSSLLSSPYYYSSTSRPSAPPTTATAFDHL

[18] = cytotoxicity dependent on PAX8, dose response, cell-based, plate reader, dry powder (AID 743049); assay type: functional
[19] = HepG2 cell cytotoxicity, dose response, cytotoxicity control for Shn3 inhibitor project, CellTiter-Glo, cherry-picked (AID 624134); assay type: functional, cell-based
[20] = control 3'UTR Renilla luciferase suppression, dose response, counter-screen for Shn3 inhibitor project, cell-based, Clone20-Shn3RL, cherry-picked (AID 624133); assay type: functional
[21] = NIH:OVCAR-3 ovarian cancer cell cytotoxicity, dose response, PAX8 inhibitor project, plate reader, dry powder samples (AID 743044); assay type: functional, cell-based
[22] = cytotoxicity in COV434 cells, dose response, cytotoxicity control for PAX8 inhibitor project, cell-based, plate reader, dry powder, SA7 (AID 743145); assay type: functional

**Q.** Which results are given for `CCN1CCN(Cc2nc3ccc([N+](=O)[O-])cc3c(=O)n2-c2cccc(F)c2)CC1`?
**A.** IC50 [1]: 450 nM (active); IC50 [2]: 310 nM (active)

**Q.** Which AC50 [3] does the source give for `Cc1nnc(NC(=O)c2ccc(S(=O)(=O)N3CCCCC3)cc2)o1` here?
**A.** > 100 µM (inactive)

**Q.** What does the source list for `O=C1C(Nc2ccccc2)=C(N2CCN(c3ccccc3)CC2)C(=O)c2ccccc21`?
**A.** AC50 [4]: > 70 µM (inactive); AC50 [5]: > 70 µM (inactive)

**Q.** For `C=CCOc1ccc(CN2CCC(CCOc3ccccc3)(C(=O)OCC)CC2)cc1Cl`, which AC50 [6] is on record?
**A.** > 30 µM (inactive)

**Q.** For `O=C1CCN(Cc2ccccc2)c2cc3ccccc3cc21`, which AC50 [7] is on record?
**A.** > 30 µM (inactive)

**Q.** For `CN(C)S(=O)(=O)c1ccc(-c2csc(NC(=O)C3CCC3)n2)cc1`, which IC50 (Fatty acid synthase) is on record?
**A.** 1.36 µM (active)

**Q.** For `CC(=O)NC(c1ccc(Cl)cc1)c1ccc2cccnc2c1O` (stereo not given), which AC50 [8] is on record?
**A.** 2.68 µM (active)

**Q.** And the AC50 [9]?
**A.** 2.31 µM (active)

**Q.** And the AC50 [10]?
**A.** 20.8 µM (active)

**Q.** What about the AC50 [11] of the same compound?
**A.** 1.57 µM (active)

**Q.** What about the AC50 [12] of the same compound?
**A.** 7.17 µM (active)

**Q.** And the AC50 [13]?
**A.** 299 nM (active)

**Q.** What about the AC50 [14] of the same compound?
**A.** 5.27 µM (active)

**Q.** What about the AC50 [15] of the same compound?
**A.** 7.12 µM (active)

**Q.** What about the AC50 [16] of the same compound?
**A.** 4.43 µM (active)

**Q.** And the AC50 [17]?
**A.** 18.1 µM (active)

**Q.** And the AC50 (HEK293)?
**A.** 4.08 µM (active)

**Q.** What about the AC50 (Paired box protein Pax-8) of the same compound?
**A.** 2.09 µM (active)

**Q.** And the AC50 [18]?
**A.** 8.52 µM (active)

**Q.** What about the AC50 [19] of the same compound?
**A.** 1.47 µM (active)

**Q.** And the AC50 [20]?
**A.** 977 nM (active)

**Q.** And the AC50 [21]?
**A.** 4.57 µM (active)

**Q.** What about the AC50 [22] of the same compound?
**A.** 5.09 µM (active)

From ChEMBL document CHEMBL1201862, “PubChem BioAssay data set” (2004)
